Laboratory results reported in patent publication US20230226012A1, “USE OF USNIC ACID, A SALT OF USNIC ACID, OR A FORMULATION THEREOF IN THE PREPARATION OF ANTI-AVIAN COCCIDIOSIS DRUGS OR FEED ADDITIVES” (priority 2022, published 2023).

Test system: Eimeria tenella
Test: Anticoccidial test in chickens orally inoculated with sporulated oocysts of Eimeria tenella (anticoccidial index, ACI)
Format: in vivo
Settings: for Lesion value: cecum, 7th day after infection; for Oocyst value: converted according to Table 2; for Clinical symptoms (bloody stool): after infection
Description: Male chicks from layer aged 1 day were selected and raised to 12-day-old. Each was weighed, while excluding thin or overweight individuals, healthy chickens with individual weight differences of less than 10 g were selected, and randomly divided into thirteen groups with each group including thirty chickens. Among them, ten groups were used as drug groups, one group as a model group, one group as a diclazuril group, and one group as a blank control group. Each chicken aged 12 days of the drug groups was subject to drug administration through mixing with feed, while that of the diclazuril group was administrated though drinking water. Each chicken aged 14 days in the drug groups, the diclazuril group and the model group was orally inoculated with 1.0×10^4 sporulated oocysts of Eimeria tenella. Each experimental chicken in all groups was free to feed and drink water until the test was over on the seventh day.
The anticoccidial index (ACI) criteria were calculated by
the calculation formula of Merck Corporation (USA), that is:
ACI=(relative weight gain rate+survival rate)×100−(lesion value+oocyst value).
Among them, the relative weight gain rate was calculated by
weighing each chicken at the beginning and end of the test, respectively, to calculate the average and relative weight gain rates. Relative weight gain rate=(test group weight gain rate/blank control group weight gain rate)×100%.
The survival rate was calculated by
recording the number of dead chickens in each group, performing an autopsy to determine the cause of death, and calculating the survival rate. Survival rate=(number of chickens alive at the end of the test/number of chickens in the test group)×100%
The lesion value was calculated by
slaughtering each chicken on the 7th day after infection to take the cecum (as shown in FIG. 5-6), and scoring the intestinal lesion of each chicken according to the lesion scoring method designed by […] and Reid (1970), and converting the lesion score into the lesion value.
Lesion scoring: (in case of lesion inconsistence between both sides of cecum, the more severe shall prevail):
0 point: no macroscopic lesions;
1 point: there are a few of petechiae scattered in the cecal wall, the cecal wall is not thickened, and the contents therein are normal;
2 points: the lesion number is more, the cecum contents are obviously bloody, the cecal wall is slightly thickened, and the contents therein are normal;
3 points: there is a lot of blood or there is a cecum core (blood clot or off-white cheese-like banana-shaped blocks) in the cecum, the cecal wall is obviously thickened, and the feces contents in the cecum are poor;
4 points: the cecum swells due to being full of a large amount of blood or cecum core with or without fecal residue, and it is also scored 4 points when the chicken dies for coccidiosis.
Lesion value (0-40)=average lesion score (0-4) for each test group×10
The oocyst value and the relative oocyst production (ROP) were calculated by collecting the chicken feces of each group, counting the number of oocysts in the feces according to McMaster counting, calculating the number of oocysts per gram of feces of each group, and obtaining the oocyst value by conversion according to Table 2.
Relative oocyst production (ROP)=(average oocyst production in the test group/average oocyst production in the model group)×100%. ROP≥15%, resistant to drugs; ROP<15%, no drug resistance.
The criteria for determining the drug efficacy were: ACI>180, high efficacy against coccidiosis; 160<ACI<180, medium efficacy against coccidiosis; 120<ACI<160, low efficacy against coccidiosis; ACI<120, inefficacy against coccidiosis.
Male chicks from layer aged 1 day were selected and raised to 12-day-old. Each was weighed, while excluding thin or overweight individuals, healthy chickens with individual weight differences of less than 10 g were selected, and randomly divided into 6 groups with each group including thirty chickens. […]

[1] = Example 2, Drug groups 1, 2 5 kg/ton in feed, Drug group 3 1:400 drinking water, diclazuril 0.2 ml/L
[2] = Example 3, Drug groups 5 kg/ton in feed, diclazuril 0.2 ml/L drinking water

SMILES: N#CC(c1ccc(Cl)cc1)c1c(Cl)cc(-n2ncc(=O)[nH]c2=O)cc1Cl (stereo not drawn) [Diclazuril]
- Effect against avian coccidiosis (conclusion) (Example 1): high therapeutic effect
- Clinical symptoms (bloody stool, food intake) (Example 1, 4th to 6th day after infection): no bloody stool
- Bloody stool (feces observation) (Example 1, 5th day after Eimeria challenge, partially mixed with blood / a large amount of feces mixed with blood / bloodless): bloodless
- ACI value (Example 1, ACI=(relative weight gain rate+survival rate)×100−(lesion value+oocyst value), herbs 5 kg/ton in feed, diclazuril 0.2 ml/L drinking water): 201.2
- Relative oocyst production (ROP) (Example 1, average oocyst production relative to model group, herbs 5 kg/ton in feed, diclazuril 0.2 ml/L drinking water): 0.0%
- Lesion value (Example 1, lesion value (0-40) = average lesion score ×10, herbs 5 kg/ton in feed, diclazuril 0.2 ml/L drinking water): 0.0
- Relative weight gain rate (Example 1, chickens, 1.0×10^4 oocysts at 14 days of age, herbs 5 kg/ton mixed with feed, diclazuril 0.2 ml/L drinking water, 9 days, relative to blank control): 101.2%
- Survival rate (Example 1, chickens, 1.0×10^4 oocysts, herbs 5 kg/ton in feed, diclazuril 0.2 ml/L drinking water, 9 days): 100%
- Criteria (drug efficacy by ACI) (Example 1, herbs 5 kg/ton in feed, diclazuril 0.2 ml/L drinking water): High (ACI>180, high efficacy against coccidiosis)
- Oocyst value (Example 1, oocysts per gram of feces relative to model group, herbs 5 kg/ton in feed, diclazuril 0.2 ml/L drinking water): 0
- Effect against avian coccidiosis (conclusion) (Example 2): high therapeutic effect
- ACI value [1]: 198.9
- Criteria (drug efficacy by ACI) [1]: High (ACI>180, high efficacy against coccidiosis)
- Survival rate (Example 2, Drug groups 1, 2 5 kg/ton in feed, Drug group 3 1:400 drinking water, diclazuril 0.2 ml/L drinking water): 100%
- Clinical symptoms (bloody stool) (Example 2): no bloody stool
- Lesion value [1]: 0
- Relative weight gain rate (Example 2, chickens, 1.0×10^4 oocysts, Drug groups 1, 2 5 kg/ton in feed, Drug group 3 1:400 drinking water, diclazuril 0.2 ml/L drinking water, 9 days): 98.9%
- Oocyst value [1]: 0
- Relative oocyst production (ROP) (Example 2, relative to model group, Drug groups 1, 2 5 kg/ton in feed, Drug group 3 1:400 drinking water, diclazuril 0.2 ml/L): 0%
- ACI value [2]: 198.4
- Criteria (drug efficacy by ACI) [2]: High (ACI>180, high efficacy against coccidiosis)
- Survival rate [2]: 100%
- Clinical symptoms (bloody stool) (Example 3): no bloody stool
- Lesion value [2]: 0
- Relative weight gain rate (Example 3, chickens, 1.0×10^4 oocysts, Drug groups 1-3 5 kg/ton in feed, diclazuril 0.2 ml/L drinking water, 9 days): 98.4%
- Oocyst value [2]: 0
- Relative oocyst production (ROP) (Example 3, relative to model group, Drug groups 5 kg/ton in feed, diclazuril 0.2 ml/L drinking water): 0%
